IC50 data for 3 compounds are collected here from patent US12637454B2, “Heterocyclic monoacylglycerol lipase (MAGL) inhibitors” (Hoffmann-La Roche Inc., priority 2019, dated 2026).

For this test, the target named is T1, MAGL (Homo sapiens, UniProt Q99685).
T1 sequence (Q99685 1-303): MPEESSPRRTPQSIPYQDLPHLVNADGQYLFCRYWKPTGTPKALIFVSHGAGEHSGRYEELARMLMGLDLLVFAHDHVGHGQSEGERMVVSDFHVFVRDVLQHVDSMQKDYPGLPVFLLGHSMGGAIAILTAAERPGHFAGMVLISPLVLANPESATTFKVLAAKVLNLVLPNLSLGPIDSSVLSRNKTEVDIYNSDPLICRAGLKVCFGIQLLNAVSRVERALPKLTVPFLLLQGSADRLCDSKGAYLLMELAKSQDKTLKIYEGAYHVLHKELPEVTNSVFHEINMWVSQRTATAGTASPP
Put plainly: 2-AG assay (MAGL inhibitory activity, hydrolysis of 2-arachidonoylglycerol followed by mass spectrometry). The class given is biochemical. The following applies: 50 pM MAGL, 8 μM 2-arachidonoylglycerol, 15 min preincubation, 30 min incubation at RT. An outline of the steps: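 MAGL at 50 pM preincubated 15 min at RT with compound (12.5 μM to 0.8 pM, 3-fold) in 50 mM TRIS, 1 mM EDTA, 0.01% Tween. Reaction with 8 μM 2-arachidonoylglycerol ran 30 min at RT, quenched with ACN; arachidonic acid measured by SPE-MS/MS as ratio to d8-arachidonic acid.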
Turning to `O=C(c1cccc(-c2cnsc2)c1Cl)N1CCN2C[C@@](O)(c3ccc(Cl)cc3)CC[C@@H]2C1` [Example 68, [(7S,9aR)-7-(4-chlorophenyl)-7-hydroxy-3,4,6,8,9,9a-hexahydro-1H-pyrido[1,2-a]pyrazin-2-yl]-[2-chloro-3-(1,2-thiazol-4-yl)phenyl]methanone], half-maximal inhibition (IC50) required 82.5 nM.
For the compound `O=C(c1cccc(-c2ccsn2)c1Cl)N1CCN2C[C@@](O)(c3ccc(C(F)(F)F)cn3)CC[C@@H]2C1` [Example 69, [(7R,9aR)-7-hydroxy-7-[5-(trifluoromethyl)pyridin-2-yl]-3,4,6,8,9,9a-hexahydro-1H-pyrido[1,2-a]pyrazin-2-yl]-[2-chloro-3-(1,2-thiazol-3-yl)phenyl]methanone], the IC50 turned out to be 126 nM. This IC50 lies about 1.5-fold higher than the previous one.
In the case of `Cc1c(C(=O)N2CCN3C[C@@](O)(c4ccc(Cl)cc4)CC[C@@H]3C2)cncc1-c1cc[nH]n1` [Example 70, [(7S,9aR)-7-(4-chlorophenyl)-7-hydroxy-3,4,6,8,9,9a-hexahydro-1H-pyrido[1,2-a]pyrazin-2-yl]-[4-methyl-5-(1H-pyrazol-3-yl)pyridin-3-yl]methanone] it was 994 nM.
